Results: US9980943B2, “Methods of treating muscular dystrophy” (BOARD OF REGENTS OF THE NEVADA SYSTEM OF HIGHER EDUCATION, …, priority 2013, dated 2018)

Key:
Format in all cases: cell-based, mouse
[1] = tested on: α7 integrin (LacZ reporter in α7βgal+/− myoblasts); assay: Myoblast α7+/LacZ integrin FDG assay (Burkin assay in myoblasts, 96-well); conditions: α7+/LacZ myoblasts, 96-well
[2] = tested on: α7 integrin (LacZ reporter in α7+/LacZ myotubes); assay: Myotube α7 integrin FDG assay (Burkin assay in myotubes, 96-well); conditions: myotubes
[3] = tested on: β-galactosidase in CMV-LacZ C2C12 myotubes; assay: CMV-LacZ secondary screen in C2C12 myotubes (β-Gal stabilizing assay); conditions: C2C12 CMV-LacZ myotubes, fold relative to DMSO
Summary of the method: (§1)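 A secondary screen identifies compounds that stabilize β-gal independently of the native promoter, using CMV-LacZ C2C12 cells. Curves span 0.5–40 μM at six levels, in duplicate.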

[4] = tested on: β-galactosidase in CMV-LacZ C2C12 myoblasts; assay: CMV-LacZ secondary screen in C2C12 myoblasts (β-Gal stabilizing assay); conditions: CMV-LacZ C2C12 myoblasts
Summary of the method: as §1

SMILES | Burkin Assay in Myoblasts, signal relative to DMSO ([1]; 0.5 uM) | Burkin Assay in Myoblasts, signal relative to DMSO ([1]; 1 uM) | Burkin Assay in Myoblasts, signal relative to DMSO ([1]; 5 uM) | Burkin Assay in Myoblasts, signal relative to DMSO ([1]; 10 uM) | Burkin Assay in Myoblasts, signal relative to DMSO ([1]; 20 uM) | Burkin Assay in Myoblasts, signal relative to DMSO ([1]; 40 uM) | Burkin Assay in Myotubes, α7 integrin LacZ reporter signal relative to DMSO ([2]; 0.5 uM) | Burkin Assay in Myotubes, α7 integrin LacZ reporter signal relative to DMSO ([2]; 1 uM) | Burkin Assay in Myotubes, α7 integrin LacZ reporter signal relative to DMSO ([2]; 5 uM) | Burkin Assay in Myotubes, α7 integrin LacZ reporter signal relative to DMSO ([2]; 10 uM) | Burkin Assay in Myotubes, α7 integrin LacZ reporter signal relative to DMSO ([2]; 20 uM) | Burkin Assay in Myotubes, α7 integrin LacZ reporter signal relative to DMSO ([2]; 40 uM) | CMV-LACZ in Myotubes, signal relative to DMSO ([3]; 0.5 uM) | CMV-LACZ in Myotubes, signal relative to DMSO ([3]; 1 uM) | CMV-LACZ in Myotubes, signal relative to DMSO ([3]; 5 uM) | CMV-LACZ in Myotubes, signal relative to DMSO ([3]; 10 uM) | CMV-LACZ in Myotubes, signal relative to DMSO ([3]; 20 uM) | CMV-LACZ in Myotubes, signal relative to DMSO ([3]; 40 uM) | CMV-LACZ in Myoblasts (β-galactosidase activity relative to DMSO) ([4]; 0.5 uM) | CMV-LACZ in Myoblasts (β-galactosidase activity relative to DMSO) ([4]; 1 uM) | other results
CC(C)CN(C(=O)c1cccc(Cl)c1)c1c(N)n(Cc2ccccc2)c(=O)[nH]c1=O [MLS002163670-01] | 1.117 | 1.234 | 1.012 | 0.9468 | 0.8972 | 0.7779 | 1.223 | 1.294 | 0.9778 | 1.072 | 0.8526 | 0.735 | 0.9237 | 1.2044 | 0.9788 | 0.8898 | 1.1659 | 1.1235 | 1.1806 | 0.8738 | CMV-LACZ in Myoblasts (β-galactosidase activity relative to DMSO) ([4]; 5 uM): 0.8671; CMV-LACZ in Myoblasts (β-galactosidase activity relative to DMSO) ([4]; 10 uM): 0.9725; CMV-LACZ in Myoblasts (β-galactosidase activity relative to DMSO) ([4]; 20 uM): 0.8611; CMV-LACZ in Myoblasts (β-galactosidase activity relative to DMSO) ([4]; 40 uM): 1.4715
COc1ccccc1CC(=O)Nc1cc(S(=O)(=O)N2CCOCC2)ccc1N1CCOCC1 [MLS002170630-01] | 1.122 | 0.9708 | 1.0982 | 1.216 | 0.7825 | 0.6735 | 1.03 | 1.075 | 0.9697 | 1.123 | 0.8857 | 1.0714 | 0.8136 | 1.0036 | 1.2068 | 0.9248 | 0.9710 | 0.8580 | 0.9954 | 0.8054 | CMV-LACZ in Myoblasts (β-galactosidase activity relative to DMSO) ([4]; 5 uM): 0.9890; CMV-LACZ in Myoblasts (β-galactosidase activity relative to DMSO) ([4]; 10 uM): 0.9628; CMV-LACZ in Myoblasts (β-galactosidase activity relative to DMSO) ([4]; 20 uM): 0.8233; CMV-LACZ in Myoblasts (β-galactosidase activity relative to DMSO) ([4]; 40 uM): 0.7387
CC1CCN(C(CNS(=O)(=O)c2ccccc2)c2ccccc2)CC1 (stereo not drawn) [MLS002171615-01] | 1.052 | 0.9407 | 0.9747 | 0.8859 | 0.709 | 0.6178 | 1.107 | 1.17 | 0.9709 | 0.9947 | 0.8432 | 0.8303 | 0.9863 | 0.7874 | 0.9989 | 0.9582 | 1.0111 | 1.0711 | 1.0498 | 1.3505 | CMV-LACZ in Myoblasts (β-galactosidase activity relative to DMSO) ([4]; 5 uM): 0.9273; CMV-LACZ in Myoblasts (β-galactosidase activity relative to DMSO) ([4]; 10 uM): 0.9905; CMV-LACZ in Myoblasts (β-galactosidase activity relative to DMSO) ([4]; 20 uM): 1.2159; CMV-LACZ in Myoblasts (β-galactosidase activity relative to DMSO) ([4]; 40 uM): 0.6726
COc1ccccc1NS(=O)(=O)c1cc(NC(=O)c2ccc(Cl)nc2)ccc1N1CCCC1 [MLS002248819-01] | 1.126 | 1.113 | 1.068 | 1.0849 | 0.8184 | 0.7689 | 1.117 | 1.198 | 1.066 | 1.24 | 0.9243 | 0.8508 | 1.0819 | 0.9505 | 1.1171 | 1.1534 | 0.9847 | 1.1929 | 0.9206 | 1.2206 | CMV-LACZ in Myoblasts (β-galactosidase activity relative to DMSO) ([4]; 5 uM): 1.2604; CMV-LACZ in Myoblasts (β-galactosidase activity relative to DMSO) ([4]; 10 uM): 1.1575; CMV-LACZ in Myoblasts (β-galactosidase activity relative to DMSO) ([4]; 20 uM): 1.7330; CMV-LACZ in Myoblasts (β-galactosidase activity relative to DMSO) ([4]; 40 uM): 1.0270
c1ccc(-c2cn3c4c(sc3n2)CCCC4)cc1 [MLS002636056-01] | 1.157 | 1.066 | 1.037 | 1.224 | 0.9377 | 0.8203 | 0.9619 | 1.089 | 0.9203 | 1.027 | 0.9045 | 1.167 | 0.9855 | 1.2636 | 1.0269 | 1.1613 | 1.4090 | 1.1160 | 0.9392 | 0.9021 | CMV-LACZ in Myoblasts (β-galactosidase activity relative to DMSO) ([4]; 5 uM): 1.0394; CMV-LACZ in Myoblasts (β-galactosidase activity relative to DMSO) ([4]; 10 uM): 1.2571; CMV-LACZ in Myoblasts (β-galactosidase activity relative to DMSO) ([4]; 20 uM): 1.1173; CMV-LACZ in Myoblasts (β-galactosidase activity relative to DMSO) ([4]; 40 uM): 0.8270
COc1cc(NC(=O)OCc2ccccc2)c2ncccc2c1 [MLS002667707-01] | 1.0156 | 0.9172 | 1.02 | 1.235 | 0.9347 | 0.8314 | 0.9955 | 1.01 | 0.8939 | 0.954 | 0.8049 | 0.7617 | 0.8905 | 1.0590 | 0.9449 | 1.0227 | 1.1576 | 1.1071 | 1.1434 | 0.6763 | CMV-LACZ in Myoblasts (β-galactosidase activity relative to DMSO) ([4]; 5 uM): 1.1897; CMV-LACZ in Myoblasts (β-galactosidase activity relative to DMSO) ([4]; 10 uM): 1.0803; CMV-LACZ in Myoblasts (β-galactosidase activity relative to DMSO) ([4]; 20 uM): 1.0044; CMV-LACZ in Myoblasts (β-galactosidase activity relative to DMSO) ([4]; 40 uM): 1.1226
